From patent US20260053931A1, “MDM2 TARGETING PROTACS” (THE WISTAR INSTITUTE OF ANATOMY AND BIOLOGY, priority 2023, published 2026)

How the values were obtained:
[1] = target: MDM2-p53 (Homo sapiens, UniProt Q00987); assay: Inhibition of MDM2 binding to p53 using HTRF (Table 3); details: mean ± S.E.M. of three replications
Protocol: Test compounds were solubilized at 10 mM in DMSO and concentration series was added to the assay plate using the Echo 650 acoustic liquid handling system by direct dilution. The final amount of DMSO added to the assay was 100 nL (0.1%). Compounds were pre-incubated with 5 μL of GST-MDM2 for 15-30 min before 5 μL of HIS-p53/anti-HIS-d2 was added to the assay. After a 2 hr incubation, the HTRF signal was measured using the ClarioStar plate reader (BMG Labtech). […] IC50 values were determined from nonlinear regression fits of a data to a four parameter dose-response equation using XLFit (IDBS). Data are the means±S.E.M. of three replications.

[2] = system: p53-null mouse sarcoma cells; assay: Murine Mdm2+/+ p53-null sarcoma cells, Western blot and MTT; type: cell-based; details: increasing concentrations, MTT assay, 48 hrs
[3] = target: T1, VHL complex (Homo sapiens, UniProt P40337); assay: Inhibition of HIF-1α peptide binding to the VHL complex using HTRF (Table 3); details: mean ± S.E.M. of three replications; read-out: VHL-HIFa peptide IC50
T1 construct: purchased R&D systems E3-655-025
T1 sequence (P40337 whole entry): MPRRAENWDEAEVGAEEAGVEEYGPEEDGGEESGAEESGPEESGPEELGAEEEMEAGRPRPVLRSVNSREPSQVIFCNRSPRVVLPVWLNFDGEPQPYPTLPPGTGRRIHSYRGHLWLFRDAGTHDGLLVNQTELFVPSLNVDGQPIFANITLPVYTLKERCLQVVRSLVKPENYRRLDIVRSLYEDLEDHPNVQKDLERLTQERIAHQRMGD
T1 sequence (Q15370 whole entry partner): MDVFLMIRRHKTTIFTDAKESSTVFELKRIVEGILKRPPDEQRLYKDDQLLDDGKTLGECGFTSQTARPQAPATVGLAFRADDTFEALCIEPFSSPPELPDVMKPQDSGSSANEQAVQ
T1 sequence (Q15369 whole entry partner): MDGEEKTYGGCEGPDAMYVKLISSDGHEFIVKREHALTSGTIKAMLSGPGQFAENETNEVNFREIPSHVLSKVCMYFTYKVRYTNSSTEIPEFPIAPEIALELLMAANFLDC
T1 sequence (Q13617 whole entry partner): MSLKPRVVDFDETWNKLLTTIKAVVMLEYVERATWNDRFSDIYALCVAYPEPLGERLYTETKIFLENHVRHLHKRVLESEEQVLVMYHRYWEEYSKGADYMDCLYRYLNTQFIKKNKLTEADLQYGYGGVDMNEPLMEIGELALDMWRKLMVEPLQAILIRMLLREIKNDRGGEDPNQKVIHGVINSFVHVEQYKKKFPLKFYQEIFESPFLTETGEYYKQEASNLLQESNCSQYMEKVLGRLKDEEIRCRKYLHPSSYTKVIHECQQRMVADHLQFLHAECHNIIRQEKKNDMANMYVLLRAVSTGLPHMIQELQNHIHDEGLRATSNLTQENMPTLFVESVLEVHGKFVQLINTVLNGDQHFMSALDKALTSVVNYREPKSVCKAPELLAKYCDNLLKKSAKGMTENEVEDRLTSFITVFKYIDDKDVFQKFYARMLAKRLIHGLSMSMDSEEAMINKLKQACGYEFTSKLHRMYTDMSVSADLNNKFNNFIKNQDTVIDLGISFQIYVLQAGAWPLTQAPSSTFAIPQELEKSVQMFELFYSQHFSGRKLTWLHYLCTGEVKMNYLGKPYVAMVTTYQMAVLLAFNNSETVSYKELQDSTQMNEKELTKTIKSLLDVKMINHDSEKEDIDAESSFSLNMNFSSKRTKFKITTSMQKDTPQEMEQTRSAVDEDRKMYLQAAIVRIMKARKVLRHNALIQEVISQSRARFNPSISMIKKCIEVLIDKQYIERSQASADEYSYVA
T1 sequence (P62877 whole entry partner): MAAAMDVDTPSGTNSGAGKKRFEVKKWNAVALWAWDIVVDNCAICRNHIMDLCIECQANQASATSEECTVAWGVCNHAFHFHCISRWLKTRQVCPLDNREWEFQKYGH
Protocol: Assays contained 2 nM of HIS-VHL complex (R&D systems, E3-655-025), 2 nM of biotin-hydroxyproline-HIF1α peptide (Biotin-[…] (SEQ ID NO: 2), X=hydroxyproline), 0.3 nM anti-HIS-Tb HTRF donor antibody and 4 nM streptavidin-d2 HTRF acceptor (PerkinElmer) in a final volume of 10 μL of 25 mM HEPES, pH 7.4, 150 mM NaCl, 5 mM DTT, 0.005% Tween20 in white low volume 384-well plates. Both HIS-VHL complex and biotin-HIF1α peptide were pre-incubated with their respective HTRF antibodies for 15 min. Test compounds were solubilized at 10 mM in DMSO and concentration series was added to the assay plate using the Echo 650 acoustic liquid handling system by direct dilution. The final amount of DMSO added to the assay was 100 nL […]. Compounds were pre-incubated with HIS-VHL complex before the addition of the biotin-HIF1α peptide. After a 2 hr incubation, the HTRF signal was measured using the ClarioStar plate reader (BMG Labtech). […] IC50 values were determined from nonlinear regression fits of a data to a four parameter dose-response equation using XLFit (IDBS). Data are the means±S.E.M. of three replications. The data is described in Table 3 above.

[4] = system: TAp73; assay: Western blotting for TAp73 in TNBC cell lines; type: cell-based, human; details: five TNBC cell lines
Protocol: FIGS. 28A-28L show TAp73 is activated by the MDM2-PROTAC YX-02-030 and mediates apoptosis of p53-inactivated TNBC cells. A-C, RNA-seq (triplicates) was performed on MDA-MB-231 cells treated with the MDM2-PROTAC YX-02-030 (6 μM, 16 hr) or DMSO vehicle control or expressing MDM2 shRNA or non-targeting control shRNA (48 hr). A, Pathway analysis using Hallmark gene signatures. B, Heatmap of p53 family target genes of individual samples (3 each). C, Spearman's correlation of differentially expressed p53 family target genes between PROTAC-treated relative to DMSO vehicle control and MDM2 shRNA relative to non-targeting shRNA control; Spearman's correlation coefficient (p) and P-value indicated. D, qRT-PCR analysis (triplicate, 6 μM, 16 hr) to validate RNA-seq results. […] I, ChIP for TAp73 was performed with MDA-MB-231 cells following treatment with the MDM2-PROTAC YX-02-030 (6 μM, 16 hr) or DMSO vehicle control, and enrichment of TAp73 (triplicate; first normalized to input DNA then IgG control) was determined at the loci indicated. J and K, After 48 hr, MDA-MB-231 cells expressing two independent TAp73 shRNA or non-targeting shRNA (shNT) control were treated with MDM2-PROTAC YX-02-030 or DMSO vehicle control (6 μM, 16 hr). p53/TAp73 target genes were evaluated by Western blotting (J) and qRT-PCR (K, triplicate). […]

Chain of MDM2-p53 (Q00987 whole entry): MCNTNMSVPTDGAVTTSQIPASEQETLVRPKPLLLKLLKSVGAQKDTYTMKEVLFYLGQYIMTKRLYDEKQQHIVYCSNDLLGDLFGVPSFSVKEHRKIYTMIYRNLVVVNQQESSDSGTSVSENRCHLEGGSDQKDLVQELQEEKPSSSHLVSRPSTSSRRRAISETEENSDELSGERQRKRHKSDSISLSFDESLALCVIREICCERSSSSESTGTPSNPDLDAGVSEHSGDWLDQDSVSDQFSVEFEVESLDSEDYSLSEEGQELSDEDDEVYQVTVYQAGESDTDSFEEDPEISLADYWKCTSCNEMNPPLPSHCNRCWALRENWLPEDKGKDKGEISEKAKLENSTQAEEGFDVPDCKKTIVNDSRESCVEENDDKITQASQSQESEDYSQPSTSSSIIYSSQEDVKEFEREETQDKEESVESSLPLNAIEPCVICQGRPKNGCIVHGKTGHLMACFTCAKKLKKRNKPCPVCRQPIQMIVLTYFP

| Structure (SMILES) | IC50 [1] [µM] | killing of p53-null sarcoma cells [2] | IC50 [3] [µM] | TAp73 protein level [4] |
| --- | --- | --- | --- | --- |
| CCOc1cc(C(C)(C)C)ccc1C1=N[C@@](C)(c2ccc(Cl)cc2)[C@@](C)(c2ccc(Cl)cc2)N1C(=O)N1CCN(CC(=O)O)CC1 (racemic) [YX-02-023, 2-(4-((4S,5R)-2-(4-(tert-butyl)-2-ethoxyphenyl)-4,5-bis(4-chlorophenyl)-4,5-dimethyl-4,5-dihydro-1H-imidazole-1-carbonyl)piperazin-1-yl)acetic acid] | 0.011 ± 0.0013 | not | > 10 |  |
| CCOc1cc(C(C)(C)C)ccc1C1=NC(C)(c2ccc(Cl)cc2)C(C)(c2ccc(Cl)cc2)N1C(=O)N1CCN(CC(=O)NCCOCCOCCOCC(=O)N[C@H](C(=O)N2C[C@H](O)C[C@H]2C(=O)NCc2ccc(-c3scnc3C)cc2)C(C)(C)C)CC1 (stereo in doubt) [YX-02-030, (2S,4R)-1-((S)-2-(tert-butyl)-17-(4-((4S,5R)-2-(4-(tert-butyl)-2-ethoxyphenyl)-4,5-bis(4-chlorophenyl)-4,5-dimethyl-4,5-dihydro-1H-imidazole-1-carbonyl)piperazin-1-yl)-4,16-dioxo-6,9,12-trioxa-3,15-diazaheptadecanoyl)-4-hydroxy-N-(4-(4-methylthiazol-5-yl)benzyl)pyrrolidine-2-carboxamide] |  |  |  | levels of TAp73 protein increased |
